Measurements as given in ChEMBL document CHEMBL1777782, “Indole 5-carboxamide Thumb Pocket I inhibitors of HCV NS5B polymerase with nanomolar potency in cell-based subgenomic replicons (part 2): central amino acid linker and right-hand-side SAR studies” (Bioorg Med Chem Lett, 2011).
Values after ≈ are worked out from the molar mass of the structure shown.

Target: not listed separately
Assay: Inhibition of HCV 1b NS5B RNA dependent RNA polymerase by scintillation proximity assay
Set-up: species or system Hepacivirus hominis
Settings: not given

| SMILES | IC50 |
| --- | --- |
| Cn1c(-c2ccccn2)c(C2CCCCC2)c2ccc(C(=O)NC(C)(C)C(=O)Nc3ccc(-c4nc(C(N)=O)cs4)cc3)cc21 | 0.317 µM |
| CC(C)(NC(=O)c1ccc2c(c1)nc(-c1ccoc1)n2C1CCCCC1)C(=O)Nc1ccc(/C=C/C(=O)O)cc1 | 0.04 µM |
| Cn1c(-c2ccccn2)c(C2CCCCC2)c2ccc(C(=O)N[C@@]3(C(=O)Nc4ccc(/C=C/C(=O)O)cc4)CCNC3)cc21 | 0.023 µM |
| Cn1c(-c2ccccn2)c(C2CCCCC2)c2ccc(C(=O)N[C@]3(C(=O)Nc4ccc(/C=C/C(=O)O)cc4)CCCNC3)cc21 | 0.04 µM |
| Cn1c(-c2ccccn2)c(C2CCCCC2)c2ccc(C(=O)NC3(C(=O)Nc4ccc(C(=O)O)cc4)CCC3)cc21 | 0.093 µM |
| Cn1c(-c2ccccn2)c(C2CCCCC2)c2ccc(C(=O)N[C@@]3(C(=O)Nc4ccc(/C=C/C(=O)O)cc4)CCCNC3)cc21 | 0.011 µM |
| Cn1c(-c2ccccn2)c(C2CCCCC2)c2ccc(C(=O)NC3(C(=O)Nc4ccc(/C=C/C(=O)O)cc4)CCCCC3)cc21 | 0.194 µM |
| Cn1c(-c2ccccn2)c(C2CCCCC2)c2ccc(C(=O)NC(C)(C)C(=O)Nc3ccc(-c4ccc(C(N)=O)o4)cc3)cc21 | 0.33 µM |

Test system: Hepatitis C virus
Assay: Antiviral activity against Hepatitis C virus genotype 1b infected in human Huh-7 cells assessed as inhibition of viral replication after 72 hrs
Format: functional, organism-based, Hepacivirus hominis
Settings: Huh-7, 72 h

| SMILES | EC50 |
| --- | --- |
| Cn1c(-c2ccccn2)c(C2CCCCC2)c2ccc(C(=O)NC(C)(C)C(=O)Nc3ccc(-c4nc(C(N)=O)cs4)cc3)cc21 | 0.15 µM |
| Cn1c(-c2ccccn2)c(C2CCCCC2)c2ccc(C(=O)N[C@@]3(C(=O)Nc4ccc(/C=C/C(=O)O)cc4)CCNC3)cc21 | 0.083 µM |
| Cn1c(-c2ccccn2)c(C2CCCCC2)c2ccc(C(=O)N[C@]3(C(=O)Nc4ccc(/C=C/C(=O)O)cc4)CCCNC3)cc21 | 0.22 µM |
| Cn1c(-c2ccccn2)c(C2CCCCC2)c2ccc(C(=O)NC3(C(=O)Nc4ccc(C(=O)O)cc4)CCC3)cc21 | 0.11 µM |
| Cn1c(-c2ccccn2)c(C2CCCCC2)c2ccc(C(=O)N[C@@]3(C(=O)Nc4ccc(/C=C/C(=O)O)cc4)CCCNC3)cc21 | 0.02 µM |
| Cn1c(-c2ccccn2)c(C2CCCCC2)c2ccc(C(=O)NC3(C(=O)Nc4ccc(/C=C/C(=O)O)cc4)CCCCC3)cc21 | 0.129 µM |
| Cn1c(-c2ccccn2)c(C2CCCCC2)c2ccc(C(=O)NC(C)(C)C(=O)Nc3ccc(-c4ccc(C(N)=O)o4)cc3)cc21 | 0.096 µM |

Test system: not listed separately
Assay: Half life in human liver microsomes at 10 uM
Settings: liver microsomes

| SMILES | half-life at 10 µM |
| --- | --- |
| Cn1c(-c2ccccn2)c(C2CCCCC2)c2ccc(C(=O)NC(C)(C)C(=O)Nc3ccc(-c4nc(C(N)=O)cs4)cc3)cc21 | 16 min |
| Cn1c(-c2ccccn2)c(C2CCCCC2)c2ccc(C(=O)N[C@@]3(C(=O)Nc4ccc(/C=C/C(=O)O)cc4)CCNC3)cc21 | > 300 min |
| Cn1c(-c2ccccn2)c(C2CCCCC2)c2ccc(C(=O)N[C@@]3(C(=O)Nc4ccc(/C=C/C(=O)O)cc4)CCCNC3)cc21 | 84 min |
| Cn1c(-c2ccccn2)c(C2CCCCC2)c2ccc(C(=O)NC3(C(=O)Nc4ccc(/C=C/C(=O)O)cc4)CCCCC3)cc21 | 61 min |
| Cn1c(-c2ccccn2)c(C2CCCCC2)c2ccc(C(=O)NC(C)(C)C(=O)Nc3ccc(-c4ccc(C(N)=O)o4)cc3)cc21 | 19 min |

Same assay, conditions: microsomes

| SMILES | half-life at 10 µM |
| --- | --- |
| Cn1c(-c2ccccn2)c(C2CCCCC2)c2ccc(C(=O)NC3(C(=O)Nc4ccc(C(=O)O)cc4)CCC3)cc21 | 21 min |

Test system: not listed separately
Assay: Permeability across apical to basolateral side in human Caco2 cells
Settings: Caco-2

| SMILES | Papp A→B |
| --- | --- |
| Cn1c(-c2ccccn2)c(C2CCCCC2)c2ccc(C(=O)N[C@@]3(C(=O)Nc4ccc(/C=C/C(=O)O)cc4)CCNC3)cc21 | 0.5 ×10⁻⁶ cm/s |
| Cn1c(-c2ccccn2)c(C2CCCCC2)c2ccc(C(=O)NC3(C(=O)Nc4ccc(C(=O)O)cc4)CCC3)cc21 | 9.7 ×10⁻⁶ cm/s |
| Cn1c(-c2ccccn2)c(C2CCCCC2)c2ccc(C(=O)N[C@@]3(C(=O)Nc4ccc(/C=C/C(=O)O)cc4)CCCNC3)cc21 | 0.6 ×10⁻⁶ cm/s |

Test system: not listed separately
Assay: Half life in rat liver microsomes at 10 uM
Format: ADME, Microsome
Settings: not given

| SMILES | half-life at 10 µM |
| --- | --- |
| Cn1c(-c2ccccn2)c(C2CCCCC2)c2ccc(C(=O)NC3(C(=O)Nc4ccc(C(=O)O)cc4)CCC3)cc21 | 9 min |
| Cn1c(-c2ccccn2)c(C2CCCCC2)c2ccc(C(=O)N[C@@]3(C(=O)Nc4ccc(/C=C/C(=O)O)cc4)CCCNC3)cc21 | 17 min |

Test system: not listed separately
Assay: Cmax in overnight-fasted Sprague-Dawley rat at 10, mg/kg, po administered by oral gavage
Format: ADME, organism-based
Settings: in vivo

| SMILES | Cmax |
| --- | --- |
| Cn1c(-c2ccccn2)c(C2CCCCC2)c2ccc(C(=O)NC3(C(=O)Nc4ccc(C(=O)O)cc4)CCC3)cc21 | 500 nM |
| Cn1c(-c2ccccn2)c(C2CCCCC2)c2ccc(C(=O)N[C@@]3(C(=O)Nc4ccc(/C=C/C(=O)O)cc4)CCCNC3)cc21 | < 100 nM |

Test system: not listed separately
Assay: Selectivity ratio for polio virus RNA-dependent RNA polymerase to HCV 1b NS5B RNA dependent RNA polymerase
Settings: not given

| SMILES | Ratio |
| --- | --- |
| Cn1c(-c2ccccn2)c(C2CCCCC2)c2ccc(C(=O)NC(C)(C)C(=O)Nc3ccc(-c4nc(C(N)=O)cs4)cc3)cc21 | > 150 |
| Cn1c(-c2ccccn2)c(C2CCCCC2)c2ccc(C(=O)N[C@@]3(C(=O)Nc4ccc(/C=C/C(=O)O)cc4)CCNC3)cc21 | > 150 |
| Cn1c(-c2ccccn2)c(C2CCCCC2)c2ccc(C(=O)N[C@]3(C(=O)Nc4ccc(/C=C/C(=O)O)cc4)CCCNC3)cc21 | > 150 |
| Cn1c(-c2ccccn2)c(C2CCCCC2)c2ccc(C(=O)NC3(C(=O)Nc4ccc(C(=O)O)cc4)CCC3)cc21 | > 150 |
| Cn1c(-c2ccccn2)c(C2CCCCC2)c2ccc(C(=O)N[C@@]3(C(=O)Nc4ccc(/C=C/C(=O)O)cc4)CCCNC3)cc21 | > 150 |
| Cn1c(-c2ccccn2)c(C2CCCCC2)c2ccc(C(=O)NC3(C(=O)Nc4ccc(/C=C/C(=O)O)cc4)CCCCC3)cc21 | > 150 |
| Cn1c(-c2ccccn2)c(C2CCCCC2)c2ccc(C(=O)NC(C)(C)C(=O)Nc3ccc(-c4ccc(C(N)=O)o4)cc3)cc21 | > 150 |

Test system: not listed separately
Assay: Selectivity ratio for mammalian DNA-dependent RNA polymerase II to HCV 1b NS5B RNA dependent RNA polymerase
Settings: not given

| SMILES | Ratio |
| --- | --- |
| Cn1c(-c2ccccn2)c(C2CCCCC2)c2ccc(C(=O)NC(C)(C)C(=O)Nc3ccc(-c4nc(C(N)=O)cs4)cc3)cc21 | > 150 |
| Cn1c(-c2ccccn2)c(C2CCCCC2)c2ccc(C(=O)N[C@@]3(C(=O)Nc4ccc(/C=C/C(=O)O)cc4)CCNC3)cc21 | > 150 |
| Cn1c(-c2ccccn2)c(C2CCCCC2)c2ccc(C(=O)N[C@]3(C(=O)Nc4ccc(/C=C/C(=O)O)cc4)CCCNC3)cc21 | > 150 |
| Cn1c(-c2ccccn2)c(C2CCCCC2)c2ccc(C(=O)NC3(C(=O)Nc4ccc(C(=O)O)cc4)CCC3)cc21 | > 150 |
| Cn1c(-c2ccccn2)c(C2CCCCC2)c2ccc(C(=O)N[C@@]3(C(=O)Nc4ccc(/C=C/C(=O)O)cc4)CCCNC3)cc21 | > 150 |
| Cn1c(-c2ccccn2)c(C2CCCCC2)c2ccc(C(=O)NC3(C(=O)Nc4ccc(/C=C/C(=O)O)cc4)CCCCC3)cc21 | > 150 |
| Cn1c(-c2ccccn2)c(C2CCCCC2)c2ccc(C(=O)NC(C)(C)C(=O)Nc3ccc(-c4ccc(C(N)=O)o4)cc3)cc21 | > 150 |

Test system: not listed separately
Assay: physchem
Settings: phosphate buffer, pH 7.2

| SMILES | solubility thermodynamic at 24 h |
| --- | --- |
| Cn1c(-c2ccccn2)c(C2CCCCC2)c2ccc(C(=O)NC(C)(C)C(=O)Nc3ccc(-c4nc(C(N)=O)cs4)cc3)cc21 | < 0.1 µg/mL |
| Cn1c(-c2ccccn2)c(C2CCCCC2)c2ccc(C(=O)N[C@@]3(C(=O)Nc4ccc(/C=C/C(=O)O)cc4)CCNC3)cc21 | 10 µg/mL (≈ 16.9 µM) |
| Cn1c(-c2ccccn2)c(C2CCCCC2)c2ccc(C(=O)NC3(C(=O)Nc4ccc(C(=O)O)cc4)CCC3)cc21 | 336 µg/mL (≈ 610 µM) |
| Cn1c(-c2ccccn2)c(C2CCCCC2)c2ccc(C(=O)N[C@@]3(C(=O)Nc4ccc(/C=C/C(=O)O)cc4)CCCNC3)cc21 | 22 µg/mL (≈ 36.3 µM) |
| Cn1c(-c2ccccn2)c(C2CCCCC2)c2ccc(C(=O)NC3(C(=O)Nc4ccc(/C=C/C(=O)O)cc4)CCCCC3)cc21 | 5 µg/mL (≈ 8.27 µM) |
| Cn1c(-c2ccccn2)c(C2CCCCC2)c2ccc(C(=O)NC(C)(C)C(=O)Nc3ccc(-c4ccc(C(N)=O)o4)cc3)cc21 | < 0.1 µg/mL |
